What was measured:
soybean looper larvae = assay: Leaf dip efficacy and synergy test, soybean looper larvae; format: in vivo, Chrysodeixis includens; details: foliar, Bta/Btk 0.26 ppm, flubendiamide 3.9 ppm, alone or in mixture
Source text: (§1) The following examples were used to determine the synergy of Bacillus thuringiensis subsp. aizawai, Bacillus thuringiensis subsp. kurstaki and flubendiamide when controlling diamondback moth, beet armyworm, sugarcane borer, soybean looper, corn earworm, cabbage looper, and southwestern corn borer. Sympatico™ emulsifiable suspension (available from Valent BioSciences LLC) was used as the source of Bacillus thuringiensis subsp. aizawai and Bacillus thuringiensis kurstaki. Sympatico™ contains about a 1:0.67 ratio of Bacillus thuringiensis subsp. kurstaki fermentation solids, spores and toxins to Bacillus thuringiensis subsp. aizawai fermentation solids, spores and toxins. Belt® was used as the source of flubendiamide. The present invention is not limited to the commercial products used in the examples. In each example below, the studies were conducted as follows.
(§2) For these tests, standardized laboratory leaf dip methods were used to inoculate plant material with treatment(s). Dry, treated leaves were placed into Petri dishes (100×25 mm) containing filter paper wetted with 500 μl of distilled H2O (“dH2O”). Each dish was then infested with between 5 and 10 larvae, dependent on species. Efficacy ratings were taken at specified intervals. Synergy ratings were calculated for each test. […]

sugarcane borer larvae = assay: Leaf dip efficacy and synergy test, sugarcane borer larvae; format: in vivo; details: Diatraea saccharalis, foliar, Bta/Btk 0.8125 ppm, flubendiamide 2.15 ppm, alone or in mixture
Source text: as §1, §2

[1] = tested on: southwestern corn borer larvae; assay: Leaf dip efficacy and synergy test, southwestern corn borer larvae; format: in vivo; details: foliar, Bta/Btk 0.8125 ppm, flubendiamide 0.39 ppm, alone or in mixture
Source text: as §1, §2

corn earworm larvae = assay: Leaf dip efficacy and synergy test, corn earworm larvae; format: in vivo; details: Helicoverpa zea, foliar, Bta/Btk 2.6 ppm, flubendiamide 0.975 ppm, alone or in mixture
Source text: as §1, §2

diamondback moth larvae = assay: Leaf dip efficacy and synergy test, diamondback moth larvae; format: in vivo; details: Plutella xylostella, foliar, Bta/Btk 0.8125 ppm, flubendiamide 0.215 ppm, alone or in mixture
Source text: as §1, with “In each example below, the studies were conducted as follows.” left out
For these tests, standardized laboratory leaf dip methods were used to inoculate plant material with treatment(s). […] Synergy ratings were calculated for each test. […]
In order to determine synergy, rates below normal field rate ranges must be used. If normal field rate ranges are used, all of the larvae would die (combining a lethal or near lethal dose of Bacillus thuringiensis subsp. aizawai and Bacillus thuringiensis subsp. kurstaki with a lethal dose of flubendiamide would most likely lead to larvae death) in every treatment and synergy would not be able to be determined. […]

cabbage looper larvae = assay: Leaf dip efficacy and synergy test, cabbage looper larvae; format: in vivo; details: Trichoplusia ni, foliar, Bta/Btk 0.8125 ppm, flubendiamide 0.49 ppm, alone or in mixture
Source text: as §1, §2

beet armyworm larvae = assay: Leaf dip efficacy and synergy test, beet armyworm larvae; format: in vivo; details: Spodoptera exigua, foliar, Bta/Btk 0.8125 ppm, flubendiamide 0.49 ppm, alone or in mixture
Source text: as §1, §2

`Cc1cc(C(F)(C(F)(F)F)C(F)(F)F)ccc1NC(=O)c1cccc(I)c1C(=O)NC(C)(C)CS(C)(=O)=O` [Flubendiamide, 3-iodo-N′-(2-mesyl-1,1-dimethylethyl)-N-{4-[1,2,2,2-tetrafluoro-1-(trifluoromethyl)ethyl]-o-tolyl}phthalamide] showed an Emax at 3.9 ppm (soybean looper larvae; 24 h after treatment) of 13%, an Emax at 3.9 ppm (soybean looper larvae; 48 h after treatment) of 38% and an Emax at 2.15 ppm (sugarcane borer larvae; 24 h after treatment) of 24%. It also gave an Emax at 2.15 ppm (sugarcane borer larvae; 48 h after treatment) of 33%, an Emax at 0.39 ppm ([1]; 24 h after treatment) of 49% and an Emax at 0.39 ppm ([1]; 48 h after treatment) of 51%. The Emax at 0.975 ppm (corn earworm larvae; 24 h after treatment) was 33%, the Emax at 0.975 ppm (corn earworm larvae; 48 h after treatment) was 33% and the Emax at 0.215 ppm (diamondback moth larvae; 24 h after treatment) was 4%. It also gave an Emax at 0.215 ppm (diamondback moth larvae; 48 h after treatment) of 42%, an Emax at 0.49 ppm (cabbage looper larvae; 24 h after treatment) of 9% and an Emax at 0.49 ppm (cabbage looper larvae; 48 h after treatment) of 65%. It also gave an Emax at 0.49 ppm (beet armyworm larvae; 24 h after treatment) of 10% and an Emax at 0.49 ppm (beet armyworm larvae; 48 h after treatment) of 23%.
